Entries after “also recorded” stand apart in the source; their conditions may differ.
Tests used:
morphine-induced emesis = test: Prevention of morphine-induced emesis in dogs; settings: for Anti-emetic ED84 value: i.v. 5 minutes prior to morphine 0.7 mg/kg i.m., estimated dose that protects 84% of treated dogs
Rat = test: Ataxic gait after antagonist alone, bolus intravenous injection; format: in vivo; settings: i.v.; only the opiate antagonist given
Excerpt: Only the opiate antagonist was given to study the acute side effect liability. Relative to the other compounds tested, higher doses of R N-methylnalorphine were required to produce ataxia as compared with the other compounds, with the exception of R and S N-methylnalorphine. Animals showing ataxic gait walked unsteadily with a widespread placement of the feet in a staggering manner.

[1] = test system: analgesic effects of morphine; test: Antagonism of morphine analgesia, tail flick test in rats; settings: i.v.; lowest dose significantly antagonizing morphine in the tail flick test
[2] = test system: morphine-induced constipation; test: Gastrointestinal transit of a charcoal meal in morphine-treated mice; format: in vivo; settings: morphine 3 mg/kg s.c.; charcoal meal by oral gavage; transit 25 minutes after charcoal
Protocol: Animals were give R N-methylnalorphine, then morphine 15 minutes later, followed by charcoal suspended in MC. Transit was measured 25 minutes after charcoal. * p<0.05 compared to morphine-treatment.
Morphine produces constipation, especially during chronic use. R N-methylnalorphine can also be used to treat constipation. […] These mice had reduced intestinal transit times of the charcoal gavage after morphine. The reduced rate of GI transit time produced by morphine is thought to be the basis of morphine's constipating effects in mammals, including man.

dogs = test: Emesis produced by the antagonist by itself in dogs
guinea pig ileum = settings: cited from earlier work
[3] = test system: cis-platinum-induced emesis; test: Cis-platinum-induced emesis in dogs; format: in vivo; settings: 0.5 mg/kg i.v.
Excerpt: Ondasetron is used postoperatively to reduce the incidence of emesis during recovery from surgery, and to reduce nausea and vomiting of cancer patients who may be receiving chemotherapy with agents such as cis-platinum. It is not effective in all post surgical or cancer patients.

C=CC[N+]1(C)CC[C@]23c4c5ccc(O)c4O[C@H]2C(=O)CC[C@@]3(O)[C@H]1C5 (stereo partly drawn) [N-methylnaloxone]
Anti-emetic ED84 value (morphine-induced emesis): 0.18 mg/k i.v. mg/kg
Minimum Dose to Produce Ataxic Gait In Rat (Rat): 15 mg/kg i.v.
Minimum Effective Dose to Antagonize Morphine Analgesia [1]: 2.5 mg/kg i.v.

C[N@+]1(CC2CC2)CC[C@]23c4c5ccc(O)c4O[C@H]2C(=O)CC[C@@]3(O)[C@H]1C5 [N-methylnaltrexone]
Anti-emetic ED84 value (morphine-induced emesis): 0.25 mg/kg i.v.
Minimum Dose to Produce Ataxic Gait In Rat (Rat): 15 mg/kg i.v.
Minimum Effective Dose to Antagonize Morphine Analgesia [1]: 15 mg/kg i.v.

C=CC[N@@+]1(C)CC[C@]23c4c5ccc(O)c4O[C@H]2[C@@H](O)C=C[C@H]3[C@H]1C5 [R N-methylnalorphine, (5α,6α,17R)-7,8-didehydro-4,5-epoxy-3,6-dihydroxy-17-methyl-17-(2-propenyl)morphinanium chloride]
Anti-emetic ED84 value (morphine-induced emesis): 0.11 mg/kg i.v.
Anti-emetic ED84 value (morphine-induced emesis; listed as compound of Formula (I)): 0.11 mg/kg
Effect on slowed gastrointestinal transit produced by morphine [2]: reversal of the slowed transit time produced by morphine; also recorded: dose-dependent increase in gastrointestinal transit
Minimum Dose to Produce Ataxic Gait In Rat (Rat): 30 mg/kg i.v.
Minimum Effective Dose to Antagonize Morphine Analgesia [1]: 30.0 mg/kg i.v.

C=CC[N+]1(C)CC[C@]23c4c5ccc(O)c4O[C@H]2[C@@H](O)C=CC3[C@H]1C5 (stereo partly drawn) [S N-methylnalorphine]
Emesis in % of animals (dogs; 0.5 mg/kg i.v., compound by itself): Emesis in 12.5% of animals at 0.5
Doses at which dogs demonstrated emesis (dogs; dog, in vivo, intravenous): > 0.5 mg/kg
Animals with emesis produced by the compound by itself (dogs; first pharmacological action): 1 out of 8
Agonist potency weaker than antagonist activity in vitro (guinea pig ileum): 10 fold
Agonist properties (guinea pig ileum; guinea pig ileum, not other tissues with mu receptors): very weak agonist properties
Block of morphine-induced emesis (morphine-induced emesis; doses tested up to 0.5 mg/kg i.v., morphine 0.7 mg/kg i.m., listed as S isomer of N-methylnalorphine): not active
Effect on slowed gastrointestinal transit produced by morphine [2]: no effect
Minimum Dose to Produce Ataxic Gait In Rat (Rat): 15 mg/kg i.v.

Cc1nccn1CC1CCc2c(c3ccccc3n2C)C1=O (stereo not drawn) [ondansetron]
Protection from the emetic effects of morphine (morphine-induced emesis; 0.5 mg/kg i.v., morphine 0.7mg/kg i.m.): failed to protect any dogs
Protection from cis-platinum-induced emesis [3]: completely protects

Source: US6455537B1, “Methods for treating opiate intolerance” (priority 1999, dated 2002)
